The record followed here is patent US4346099A, “Carboxy-imidazole derivatives, compositions and use” (Ono Pharmaceutical Co., Ltd., priority 1981, dated 1982).

This experiment deals with T1, thromboxane synthetase from rabbit platelet microsomes (Oryctolagus cuniculus, UniProt G1TAZ9).
T1 construct: thromboxane synthetase from rabbit platelet microsomes; from tissue; host or cells: rabbit platelet microsomes
T1 sequence (G1TAZ9 1-530): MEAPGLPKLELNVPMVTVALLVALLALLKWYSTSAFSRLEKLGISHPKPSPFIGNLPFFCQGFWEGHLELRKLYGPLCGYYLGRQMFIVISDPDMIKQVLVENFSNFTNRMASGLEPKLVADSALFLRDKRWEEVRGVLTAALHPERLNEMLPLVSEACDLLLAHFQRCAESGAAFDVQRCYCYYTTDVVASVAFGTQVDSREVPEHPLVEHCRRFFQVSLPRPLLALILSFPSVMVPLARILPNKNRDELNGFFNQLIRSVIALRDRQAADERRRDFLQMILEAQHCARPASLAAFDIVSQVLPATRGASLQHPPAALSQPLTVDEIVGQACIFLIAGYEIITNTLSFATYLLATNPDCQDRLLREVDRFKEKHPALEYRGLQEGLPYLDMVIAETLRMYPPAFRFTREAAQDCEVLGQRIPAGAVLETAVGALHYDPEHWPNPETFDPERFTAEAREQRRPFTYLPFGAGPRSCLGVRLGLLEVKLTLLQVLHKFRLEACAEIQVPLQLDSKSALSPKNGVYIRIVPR
In words: inhibition of thromboxane synthetase from rabbit platelet microsomes (standard laboratory tests). In kind it is biochemical.

Counter-ions that a name gives are not always drawn.

A word on the IC50: it is the midpoint of a concentration-inhibition curve. Read a low IC50 as greater potency. The compound `O=C(O)C1(CCCCCCn2ccnc2)CCCCC1` [1-(7-carboxy-7,7-pentanoheptyl)imidazole hydrochloride] returned a 50% inhibitory concentration (IC50) of 46 nM.
With `O=C(O)C(CCCCCCn1ccnc1)c1ccccc1` (centres unmarked) [1-(7-carboxy-7-phenylheptyl)imidazole hydrochloride] the figure was 38 nM.
